Patent publication US10030047B2 (Hoffmann-La Roche Inc., priority 2015, dated 2018)
In brackets after ≈: the same amount, converted by molar mass.

Test system: A. baumannii strain ATCC19606
Assay: Minimum inhibitory concentration (MIC) determination, microbroth dilution (CLSI)
Assay type: cell-based
Conditions: Acinetobacter baumannii; A. baumannii ATCC19606; CAMHB; read after 20 hours; >=80% growth inhibition; read-out: ATCC19606 MIC
Procedure, shortened: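 After 20 h at 35±2 °C, MIC taken visually and by OD 600 nm as the lowest concentration giving ≥80% growth inhibition. Bacteria (~5×10^5 CFU/ml) were tested per CLSI microbroth dilution against twofold serial compound dilutions in cation-adjusted Mueller Hinton broth.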

MIC [µg/mL] | Structure (SMILES)
0.5 (≈ 0.716 µM) | Cc1cccc2c1Sc1ccccc1CN[C@@H](CCCN)C(=O)N[C@@H](CCCCN)C(=O)N(C)[C@@H](Cc1c(C)[nH]c3ccccc13)C(=O)NC2 [Example 58, (12S,15S,18S)-15-(4-Amino-butyl)-18-(3-amino-propyl)-4,13-dimethyl-12-(2-methyl-1H-indol-3-ylmethyl)-2-thia-10,13,16,19-tetraaza-tricyclo[19.4.0.0*3,8*]pentacosa-1(21),3,5,7,22,24-hexaene-11,14,17-trione]
0.5 (≈ 0.664 µM) | Cc1[nH]c2ccccc2c1C[C@H]1C(=O)NCc2cc(Cl)cc(Cl)c2Sc2ccccc2CN[C@@H](CCCN)C(=O)N[C@@H](CCCCN)C(=O)N1C [Example 59, (12S,15S,18S)-15-(4-Amino-butyl)-18-(3-amino-propyl)-4,6-dichloro-13-methyl-12-(2-methyl-1H-indol-3-yl)-2-methyl)-2-thia-10,13,16,19-tetraaza-tricyclo[19.4.0.0*3,8*]pentacosa-1(21),3,5,7,22,24-hexaene-11,14,17-trione]
1 (≈ 1.28 µM) | CN1C(=O)[C@H](CCCCN)NC(=O)[C@H](CCCN)NCc2cccnc2Sc2c(Cl)cc(-c3cnccn3)cc2CNC(=O)[C@@H]1Cc1c[nH]c2ccccc12 [Example 146, (11S,14S,17S)-14-(4-Amino-butyl)-11-(3-amino-propyl)-25-chloro-17-(1H-indol-3-ylmethyl)-16-methyl-23-pyrazin-2-yl-2-thia-4,10,13,16,19-pentaaza-tricyclo[19.4.0.0*3,8*]pentacosa-1(25),3(8),4,6,21,23-hexaene-12,15,18-trione]
0.12 (≈ 0.154 µM) | CCN1C(=O)[C@H](CCCCN)NC(=O)[C@H](CCCN)NCc2cccnc2Sc2c(C)cc(Br)cc2CNC(=O)[C@@H]1Cc1c[nH]c2ccccc12 [Example 84, (11S,14S,17S)-14-(4-Amino-butyl)-11-(3-amino-propyl)-23-bromo-16-ethyl-17-(1H-indol-3-ylmethyl)-25-methyl-2-thia-4,10,13,16,19-pentaaza-tricyclo[19.4.0.0*3,8*]pentacosa-1(25),3(8),4,6,21,23-hexaene-12,15,18-trione]
4 (≈ 5.19 µM) | CN1C(=O)[C@H](CCCCN)NC(=O)[C@H](CCCN)NCc2cccnc2Sc2c(Cl)cc(-n3ccnc3)cc2CNC(=O)[C@@H]1Cc1c[nH]c2ccccc12 [Example 227, (11S,14S,17S)-14-(4-Amino-butyl)-11-(3-amino-propyl)-25-chloro-23-imidazol-1-yl-17-(1H-indol-3-ylmethyl)-16-methyl-2-thia-4,10,13,16,19-pentaaza-tricyclo[19.4.0.0*3,8*]pentacosa-1(21),3,5,7,22,24-hexaene-12,15,18-trione]
0.12 (≈ 0.14 µM) | CN1C(=O)[C@H](CCCCN)NC(=O)[C@H](CCCN)NCc2cccnc2Sc2c(Cl)ccc(-c3ccc(S(C)(=O)=O)cc3)c2CNC(=O)[C@@H]1Cc1c[nH]c2ccccc12 [Example 225, (11S,14S,17S)-14-(4-Amino-butyl)-11-(3-amino-propyl)-25-chloro-17-(1H-indol-3-ylmethyl)-22-(4-methanesulfonyl-phenyl)-16-methyl-2-thia-4,10,13,16,19-pentaaza-tricyclo[19.4.0.0*3,8*]pentacosa-1(21),3,5,7,22,24-hexaene-12,15,18-trione]
1 (≈ 1.29 µM) | CN1C(=O)[C@H](CCCCN)NC(=O)[C@H](CCCN)NCc2cnccc2Sc2c(Cl)cc(C(F)(F)F)cc2CNC(=O)[C@@H]1Cc1c[nH]c2ccccc12 [Example 156, (7S,10S,13S)— 13-((1H-Indol-3-yl)methyl)-10-(4-aminobutyl)-7-(3-aminopropyl)-20-chloro-12-methyl-18-(trifluoromethyl)-6,7,9,10,12,13,15,16-octahydrobenzo[b]pyrido[3,4-p][1,5,8,11,14]thiatetraazacycloheptadecine-8,11,14(5H)-trione]
1 (≈ 1.28 µM) | CN1C(=O)[C@H](CCCCN)NC(=O)[C@H](CCCN)NCc2cccnc2Sc2c(Cl)cc(-c3ccccc3)cc2CNC(=O)[C@@H]1Cc1c[nH]c2ccccc12 [Example 149]
0.5 (≈ 0.675 µM) | CN1C(=O)[C@H](CCCCN)NC(=O)[C@H](CCCN)NCc2nccnc2Sc2c(Cl)ccc(Cl)c2CNC(=O)[C@@H]1Cc1c[nH]c2ccccc12 [Example 110, (11S,14S,17S)-14-(4-Amino-butyl)-11-(3-amino-propyl)-22,25-dichloro-17-(1H-indol-3-ylmethyl)-16-methyl-2-thia-4,7,10,13,16,19-hexaaza-tricyclo[19.4.0.0*3,8*]pentacosa-1(25),3,5,7,21,23-hexaene-12,15,18-trione]
0.5 (≈ 0.685 µM) | CN1C(=O)[C@H](CCCCN)NC(=O)[C@H](CCCN)NCc2cccnc2Sc2c(Cl)cc(C#N)cc2CNC(=O)[C@@H]1Cc1c[nH]c2ccccc12 [Example 185, (11S,14S,17S)-14-(4-Amino-butyl)-11-(3-amino-propyl)-25-chloro-17-(1H-indol-3-ylmethyl)-16-methyl-12,15,18-trioxo-2-thia-4,10,13,16,19-pentaaza-tricyclo[19.4.0.0*3,8*]pentacosa-1(25),3(8),4,6,21,23-hexaene-23-carbonitrile]
1 (≈ 1.35 µM) | CN1C(=O)[C@H](CCCCN)NC(=O)[C@H](CCCN)NCc2ccccc2Sc2c(Cl)cc(Cl)cc2CNC(=O)[C@@H]1Cc1c[nH]c2ccccc12 [Example 42, (12S,15S,18S)-15-(4-Amino-butyl)-18-(3-amino-propyl)-4,6-dichloro-12-(1H-indol-3-ylmethyl)-13-methyl-2-thia-10,13,16,19-tetraaza-tricyclo[19.4.0.0*3,8*]pentacosa-1(25),3,5,7,21,23-hexaene-11,14,17-trione]
8 (≈ 11.3 µM) | CN1C(=O)[C@H](CCCCN)NC(=O)C(C)(C)NCc2cccnc2Sc2c(Cl)cc(Cl)cc2CNC(=O)[C@@H]1Cc1c[nH]c2ccccc12 [Example 107, (14S,17S)-14-(4-Amino-butyl)-23,25-dichloro-17-(1H-indol-3-ylmethyl)-11,11,16-trimethyl-2-thia-4,10,13,16,19-pentaaza-tricyclo[19.4.0.0*3,8*]pentacosa-1(25),3,5,7,21,23-hexaene-12,15,18-trione]
2 (≈ 2.7 µM) | CN1C(=O)[C@H](CCCCN)NC(=O)[C@H](CCCN)NCc2ncccc2Sc2c(Cl)ccc(Cl)c2CNC(=O)[C@@H]1Cc1c[nH]c2ccccc12 [Example 104, (11S,14S,17S)-14-(4-Amino-butyl)-11-(3-amino-propyl)-22,25-dichloro-17-(1H-indol-3-ylmethyl)-16-methyl-2-thia-7,10,13,16,19-pentaaza-tricyclo[19.4.0.0*3,8*]pentacosa-1(21),3,5,7,22,24-hexaene-12,15,18-trione]
0.5 (≈ 0.731 µM) | Cc1cccc2c1Sc1ccccc1CN[C@@H](CCCN)C(=O)N[C@@H](CCCCN)C(=O)N(C)[C@@H](Cc1c[nH]c3ccccc13)C(=O)NC2 [Example 8, (12S,15S,18S)-15-(4-Amino-butyl)-18-(3-amino-propyl)-12-(1H-indol-3-ylmethyl)-4,13-dimethyl-2-thia-10,13,16,19-tetraaza-tricyclo[19.4.0.0*3,8*]pentacosa-1(21),3,5,7,22,24-hexaene-11,14,17-trione]
16 (≈ 20.5 µM) | COc1cc(-c2cc3c(cn2)Sc2ncccc2CN[C@@H](CCCN)C(=O)N[C@@H](CCCCN)C(=O)N(C)[C@@H](Cc2c[nH]c4ccccc24)C(=O)NC3)ccn1 [Example 205, (7S,10S,13S)-13-((1H-Indol-3-yl)methyl)-10-(4-aminobutyl)-7-(3-aminopropyl)-18-(2-methoxypyridin-4-yl)-12-methyl-6,7,9,10,12,13,15,16-octahydrodipyrido[2,3-b:4′,3′-p][1,5,8,11,14]thiatetraazacycloheptadecine-8,11,14(5H)-trione]
4 (≈ 5.11 µM) | CN1C(=O)[C@H](CCCCN)NC(=O)[C@H](CCCN)NCc2cccnc2Sc2c(Cl)cc(-c3cccnc3)cc2CNC(=O)[C@@H]1Cc1c[nH]c2ccccc12 [Example 99, (11S,14S,17S)-14-(4-Amino-butyl)-11-(3-amino-propyl)-25-chloro-17-(1H-indol-3-ylmethyl)-16-methyl-23-pyridin-3-yl-2-thia-4,10,13,16,19-pentaaza-tricyclo[19.4.0.0*3,8*]pentacosa-1(25),3,5,7,21,23-hexaene-12,15,18-trione]
32 (≈ 38.9 µM) | CN1C(=O)[C@H](CCCCN)NC(=O)[C@H](Cc2cccc3ccccc23)NCc2cccnc2Sc2c(Cl)cc(Cl)cc2CNC(=O)[C@@H]1Cc1c[nH]c2ccccc12 [Example 114, (11S,14S,17S)-14-(4-Amino-butyl)-23,25-dichloro-17-(1H-indol-3-ylmethyl)-16-methyl-11-naphthalen-1-ylmethyl-2-2-thia-4,10,13,16,19-pentaaza-tricyclo[19.4.0.0*3,8*]pentacosa-1(25),3,5,7,21,23-hexaene-12,15,18-trione]
1 (≈ 1.12 µM) | Cc1[nH]c2ccccc2c1C[C@H]1C(=O)NCc2cc(-c3ccnc(N4CCN(C)CC4)c3)cc(Cl)c2Sc2ncccc2CN[C@@H](CCCN)C(=O)N[C@@H](CCCCN)C(=O)N1C [Example 203, (7S,10S,13S)— 10-(4-aminobutyl)-7-(3-aminopropyl)-20-chloro-6,7,9,10,12,13,15,16-octahydro-12-methyl-13-[(2-methyl-1H-indol-3-yl)methyl]-18-[2-(4-methyl-1-piperazinyl)-4-pyridinyl]pyrido[2,3-b][1,5,8,11,14]benzothiatetraazacycloheptadecine-8,11,14(5H)-trione]
1 (≈ 1.29 µM) | CN1C(=O)[C@H](CCCCN)NC(=O)[C@H](CCCN)NCc2ccncc2Sc2c(Cl)ccc(C(F)(F)F)c2CNC(=O)[C@@H]1Cc1c[nH]c2ccccc12 [Example 122, (11S,14S,17S)-14-(4-Amino-butyl)-11-(3-amino-propyl)-25-chloro-17-(1H-indol-3-ylmethyl)-16-methyl-22-trifluoromethyl-2-thia-5,10,13,16,19-pentaaza-tricyclo[19.4.0.0*3,8*]pentacosa-1(25),3,5,7,21,23-hexaene-12,15,18-trione]
